16 compounds from patent US9670227B2, “Thienopyrimidine derivatives, a process for their preparation and pharmaceutical compositions containing them” (LES LABORATOIRES SERVIER, priority 2013, dated 2017) can be followed below.

For the first assay, the target named is Mcl-1 protein (UniProtKB primary accession number: Q07820) (Homo sapiens, UniProt Q07820). The assay can be described thus: Inhibition of Mcl-1 by fluorescence polarisation, Method 1. Type of assay: binding. As to conditions: fluorescence polarisation test; Method 1, or Method 2 where the value is underlined (underlining not visible); read-out: IC50 (M) Mcl-1 FP. A digest of the protocol: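 Binding was measured as fluorescence polarisation of a fluorescein-labelled ligand (1 nM) displaced from Mcl-1 (5 nM), both final. Compounds ran as 11-point series with final DMSO at 5%.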
Sequence of Mcl-1 protein (Q07820 whole entry): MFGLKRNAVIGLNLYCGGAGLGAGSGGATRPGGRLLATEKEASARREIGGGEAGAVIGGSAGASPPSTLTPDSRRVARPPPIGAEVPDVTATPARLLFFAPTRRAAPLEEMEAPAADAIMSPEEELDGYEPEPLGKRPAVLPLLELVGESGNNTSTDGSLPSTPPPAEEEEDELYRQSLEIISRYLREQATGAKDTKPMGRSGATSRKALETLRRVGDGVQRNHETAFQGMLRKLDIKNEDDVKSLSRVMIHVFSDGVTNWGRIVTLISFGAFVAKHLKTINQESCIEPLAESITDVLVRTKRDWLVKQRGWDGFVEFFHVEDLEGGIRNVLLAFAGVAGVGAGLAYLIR
A general note: Polarisation of emitted light reports the rotation of a fluorescent probe.
With `CCOC(=O)C(Cc1ccccc1OCc1ccnc(-c2ccccc2CO)n1)Oc1ncnc2sc(-c3ccc(F)cc3)c(-c3ccc(OCCN4CCN(C)CC4)c(Cl)c3C)c12` [Example 856, ethyl (2R)-2-{[(5Sa)-5-{3-chloro-2-methyl-4-[2-(4-methylpiperazin-1-yl)ethoxy]phenyl}-6-(4-fluorophenyl)thieno[2,3-d]pyrimidin-4-yl]oxy}-3-[2-({2-[2-(hydroxymethyl)phenyl]pyrimidin-4-yl}methoxy)phenyl]propanoate], the IC50 was found to be 9.79e-07 M. Same read-out and setting: the result for `CCOC(=O)C(Cc1ccccc1OCc1ccnc(-c2ccccc2O)n1)Oc1ncnc2sc(-c3ccc(F)cc3)c(-c3ccc(OCCN4CCNCC4)c(Cl)c3C)c12` [Example 798, ethyl (2R)-2-{[(5Sa)-5-{3-chloro-2-methyl-4-[2-(piperazin-1-yl)ethoxy]phenyl}-6-(4-fluorophenyl)thieno[2,3-d]pyrimidin-4-yl]oxy}-3-(2-{[2-(2-hydroxyphenyl)pyrimidin-4-yl]methoxy}phenyl)propanoate] reads 5.15e-06 M. Turning to `CCOC(=O)C(Cc1ccccc1OCc1ccnc(-c2ccccc2OC)n1)Oc1ncnc2sc(-c3ccc(F)cc3)c(-c3ccc(OCCN4CCNCC4)c(Cl)c3C)c12` [Example 795, ethyl (2R)-2-{[(5Sa)-5-{3-chloro-2-methyl-4-[2-(piperazin-1-yl)ethoxy]phenyl}-6-(4-fluorophenyl)thieno[2,3-d]pyrimidin-4-yl]oxy}-3-(2-{[2-(2-methoxyphenyl)pyrimidin-4-yl]methoxy}phenyl)propanoate], the IC50 turned out to be 8.5e-07 M. On the same count and under the same terms, the result for `CCOC(=O)C(Cc1ccccc1OCc1ccnc(-c2ccccc2F)n1)Oc1ncnc2sc(-c3ccc(F)cc3)c(-c3ccc(OCCN4CCN(C)CC4)c(Cl)c3C)c12` [Example 797, ethyl (2R)-2-{[(5Sa)-5-{3-chloro-2-methyl-4-[2-(4-methylpiperazin-1-yl)ethoxy]phenyl}-6-(4-fluorophenyl)thieno[2,3-d]pyrimidin-4-yl]oxy}-3-(2-{[2-(2-fluorophenyl)pyrimidin-4-yl]methoxy}phenyl)propanoate] reads 2.75e-06 M.

Still in this assay, the particulars now being: fluorescence polarisation test; Method 2 values are underlined in the patent (underlining not visible here); read-out: IC50 (M) Mcl-1 FP.
As for `Cc1c(-c2c(-c3ccc(F)cc3)sc3ncnc(OC(Cc4ccccc4OCc4ccnn4C(C)C)C(=O)O)c23)ccc(OCCN2CCN(C)CC2)c1Cl` [Example 71, (2R)-2-{[(5Sa)-5-{3-chloro-2-methyl-4-[2-(4-methylpiperazin-1-yl)ethoxy]phenyl}-6-(4-fluorophenyl)thieno[2,3-d]pyrimidin-4-yl]oxy}-3-(2-{[1-(propan-2-yl)-1H-pyrazol-5-yl]methoxy}phenyl)propanoic acid], the IC50 stood at 9.4e-09 M. On the same count and under the same terms, as for `COc1ccccc1CC(Oc1ncnc2sc(-c3ccco3)c(-c3ccc(OCCN4CCN(C(C)=O)CC4)c(Cl)c3C)c12)C(=O)O` [Example 323, (2R)-2-{[(5Sa)-5-{4-[2-(4-acetylpiperazin-1-yl)ethoxy]-3-chloro-2-methylphenyl}-6-(furan-2-yl)thieno[2,3-d]pyrimidin-4-yl]oxy}-3-(2-methoxyphenyl)propanoic acid], the figure is 8.8e-09 M; as for `Cc1ccncc1-c1nccc(COc2ccccc2CC(Oc2ncnc3sc(-c4ccc(F)cc4)c(-c4ccc(OCCN5CCN(C)CC5)c(Cl)c4C)c23)C(=O)O)n1` [Example 123, (2R)-2-{[(5Sa)-5-{3-chloro-2-methyl-4-[2-(4-methylpiperazin-1-yl)ethoxy]phenyl}-6-(4-fluorophenyl)thieno[2,3-d]pyrimidin-4-yl]oxy}-3-(2-{[2-(4-methylpyridin-3-yl)pyrimidin-4-yl]methoxy}phenyl)propanoic acid], 4.3e-09 M.

With `COc1nccc(COc2ccccc2CC(Oc2ncnc3sc(-c4ccc(F)o4)c(-c4ccc(OCCN5CCN(C)CC5)c(Cl)c4C)c23)C(=O)O)n1` [Example 176, (2R)-2-{[(5Sa)-5-{3-chloro-2-methyl-4-[2-(4-methylpiperazin-1-yl)ethoxy]phenyl}-6-(5-fluorofuran-2-yl)thieno[2,3-d]pyrimidin-4-yl]oxy}-3-{2-[(2-methoxypyrimidin-4-yl)methoxy]phenyl}propanoic acid], the IC50 was determined as 3.1e-09 M. Take `CCCCn1nccc1COc1ccccc1CC(Oc1ncnc2sc(-c3ccc(F)cc3)c(-c3ccc(OCCN4CCN(C)CC4)c(Cl)c3C)c12)C(=O)O` [Example 83, (2R)-3-{2-[(1-butyl-1H-pyrazol-5-yl)methoxy]phenyl}-2-{[(5Sa)-5-{3-chloro-2-methyl-4-[2-(4-methylpiperazin-1-yl)ethoxy]phenyl}-6-(4-fluorophenyl)thieno[2,3-d]pyrimidin-4-yl]oxy}propanoic acid]: the IC50 is 5.1e-09 M.

Still in this assay, the particulars now being: fluorescence polarisation; Method 1, or Method 2; read-out: IC50 (M) Mcl-1 FP.
In the case of `Cc1c(-c2c(-c3ccnn3C)sc3ncnc(OC(Cc4ccccc4)C(=O)O)c23)ccc(OCCN2CCN(C)CC2)c1Cl` [Example 508, (2R)-2-{[(5Sa)-5-{3-chloro-2-methyl-4-[2-(4-methylpiperazin-1-yl)ethoxy]phenyl}-6-(1-methyl-1H-pyrazol-5-yl)thieno[2,3-d]pyrimidin-4-yl]oxy}-3-phenylpropanoic acid], the IC50 stood at 3.7e-07 M. Consider `COc1ccccc1CC(Oc1ncnc2sc(-c3cccc(Cl)c3)c(-c3ccc(OCCN4CCN(C)CC4)c(Cl)c3C)c12)C(=O)O` [Example 550, (2R)-2-{[(5Sa)-5-{3-chloro-2-methyl-4-[2-(4-methylpiperazin-1-yl)ethoxy]phenyl}-6-(3-chlorophenyl)thieno[2,3-d]pyrimidin-4-yl]oxy}-3-(2-methoxyphenyl)propanoic acid], for which the IC50 was 4.8e-08 M. Still for that read-out and setting: as for `CCc1sc2ncnc(OC(Cc3ccccc3)C(=O)O)c2c1-c1ccc(OCCCc2ccncc2)c(Cl)c1C` [Example 399, (2R)-2-[((5Sa)-5-{3-chloro-2-methyl-4-[3-(pyridin-4-yl)propoxy]phenyl}-6-ethylthieno[2,3-d]pyrimidin-4-yl)oxy]-3-phenylpropanoic acid], the figure is 1.4e-08 M; as for `CCc1sc2ncnc(OC(Cc3ccccc3)C(=O)O)c2c1-c1ccc(OCc2ccncc2)c(Cl)c1C` [Example 395, (2R)-2-({(5Sa)-5-[3-chloro-2-methyl-4-(pyridin-4-ylmethoxy)phenyl]-6-ethylthieno[2,3-d]pyrimidin-4-yl}oxy)-3-phenylpropanoic acid], 1.6e-08 M. Turning to `CC#Cc1sc2ncnc(OC(Cc3ccccc3OC)C(=O)O)c2c1-c1ccc(OCCN2CCOCC2)c(Cl)c1C` [Example 685, (2R)-2-{[(5Sa)-5-{3-chloro-2-methyl-4-[2-(morpholin-4-yl)ethoxy]phenyl}-6-(prop-1-yn-1-yl)thieno[2,3-d]pyrimidin-4-yl]oxy}-3-(2-methoxyphenyl)propanoic acid], the IC50 came out at 1.2e-08 M. Regarding `CCc1sc2ncnc(OC(Cc3ccccc3)C(=O)O)c2c1-c1cc(N)c(O)c(Cl)c1C` [Example 431, (2R)-2-{[(5Sa)-5-(5-amino-3-chloro-4-hydroxy-2-methylphenyl)-6-ethylthieno[2,3-d]pyrimidin-4-yl]oxy}-3-phenylpropanoic acid], the IC50 was determined as 3.2e-08 M.

The assay is the same for the next values; noted with them: partial inhibitors; @ 10 uM test compound.
For the compound `CCOC(=O)[C@@H](Cc1ccccc1OCc1cnccn1)Oc1ncnc2sc(-c3ccc(F)cc3)c(-c3ccc(OCCN4CCN(C)CC4)c(Cl)c3C)c12` [Example 631, ethyl (2R)-2-{[(5Sa)-5-{3-chloro-2-methyl-4-[2-(4-methylpiperazin-1-yl)ethoxy]phenyl}-6-(4-fluorophenyl)thieno[2,3-d]pyrimidin-4-yl]oxy}-3-[2-(pyrazin-2-ylmethoxy)phenyl]propanoate], the “percentage fluorescence polarisation inhibition, Mcl-1 FP” value amounted to 56% @ 10 uM.

One may read the IC50 as the concentration needed to halve the response being measured.
